This is an account of results in patent publication EP2002838A1, “Use of aryl and hetaryl amide derivatives as modulators of an EP2 receptor” (Bayer Schering Pharma AG, priority 2007, dated 2008).

One experiment relates to Kumulus-Eizell Komplexe. Description: Cumulus expansion test in vitro. The experiment is classed as cell-based, Mäuse. Conditions: competition with PGE2. The text has this: In immaturen weiblichen Mäusen (Stamm : CD1 (ICR) von Charles River) wird in einem Alter von 14-18 Tagen die Follikulogenese durch eine einmalige Gabe (intraperitoneal) von 10 1.E. PMSG (Pregnant Mare Serum Gonadotropine; Sigma G-4877, Lot 68H0909) induziert. 47 - 50 Stunden nach der Injektion werden die Ovarien entnommen und die Kumulus-Eizell Komplexe entnommen. Der Kumulus Komplex ist in diesem Stadium noch nicht expandiert. Die Kumulus-Eizell Komplexe werden nun für 20 - 24 Stunden mit Prostaglandin E2 (PGE2) (0,3 µM), Vehikel Kontrolle (Ethanol) oder Testsubstanzen inkubiert. Medium: alpha- MEM Medium mit 0,1 mM IBMX, Pyruvate (0,23 mM) Glutamine (2 mM), Pen/Strep 100 IU/ml Pen. und 100 µg/ml Strep.) und HSA (8 mg/ml)). Danach wird die Kumulus Expansion durch die Einteilung in vier Stadien (nach Vanderhyden et al. Dev Biol. 1990 Aug;140(2):307-317) festgestellt. Tabelle 1: Beispiel für die biologische Wirksamkeit der erfindungsgemäßen Verbindungen (gemessen mittels cAMP Antagonismustest): […]

Experiment [1] concerns the target T1, EP2-Subtyp des humanen PGE2-Rezeptors (Homo sapiens, UniProt P43116).
T1 construct: host or cells: cells in a culture plate
Description: cAMP antagonism test (cellular, HTRF cAMP detection, PGE2 stimulation). The experiment is classed as cell-based. Conditions: cAMP Antagonismustest; in presence of agonist PGE2; read-out: Antagonismus [IC50. The text has this:
Die Bindung von PGE2 an den EP2-Subtyp des humanen PGE2-Rezeptors induziert die Aktivierung membranständiger Adenylatzyklasen und führt zur Bildung von cAMP. In Gegenwart des Phosphodiesteraseinhibitors IBMX wird das durch diese Stimulation akkumulierte und mittels Zell-Lyse freigesetzte cAMP in einem kompetitiven Nachweisverfahren eingesetzt. In diesem Test konkurriert das cAMP im Lysat mit cAMP-XL665 um die Bindung eines Eu-Kryptat markierten Anti-cAMP Antikörpers. Dabei entsteht in Abwesenheit von zellulärem cAMP ein maximales Signal, welches auf der Kopplung dieses Antikörpers an das cAMP-XL665 Molekül beruht. Dadurch entsteht nach Anregung bei 337 nm ein auf FRET (fluorescence resonance energy transfer) basierendes, langanhaltendes Emissionssignal bei 665 nm (und bei […]). Beide Signale werden in einem geeigneten Messgerät zeitlich versetzt, d.h. nach Abklingen der Hintergrundsfluoreszenz gemessen. Jegliche Erhöhung des durch Prostglandin-E2-Gabe bedingten niedrigen FRET-Signals (gemessen als Well-Ratio-Veränderung = Emission665nm/Emission620nm * 10000) zeigt die Wirkung von Antagonisten.
Die in einer Testplatte und 30 % DMSO vorgelegten Substanzlösungen (0.75 µl) werden in 16 µl einer KRSB+IBMX-Stimulationslösung gelöst (1 X Krebs-Ringer Bicarbonate Buffer; Sigma-Aldrich # K-4002; inklusive 750 µM 3-Isobutyl-1-methylxanthine Sigma-Aldrich # I-7018), anschließend werden 15 µl davon in eine medienfreie Zellkulturplatte überführt, die kurz zuvor mit KRSB gewaschen worden war.
Nach einer 30-minütigen Vorinkubation bei Raumtemperatur (RT) werden 5 µl einer 4xPGE2 Lösung (11 nM) zugegeben und in Gegenwart des Agonisten für weitere 60 min bei RT inkubiert (Volumen: - 20 µl), bevor die Reaktion anschließend durch Zugabe von 5 µl Lysispuffer gestoppt und für weitere 20 min bei RT inkubiert wird (Volumen: - 25 µl). Das Zell-Lysat wird anschließend in eine Messplatte überführt und entsprechend den Herstellerangaben (cyclic AMP kit Cisbio International # 62AMPPEC) gemessen.
For orientation: TR-FRET usually uses a lanthanide donor and a delayed reading to cut background.

For experiment [2], the target named is T1, EP2-Subtyp des humanen PGE2-Rezeptors. Kind of experiment: cAMP agonism test (cellular, HTRF cAMP detection, without PGE2). Format: cell-based.

The structures appear in SMILES notation.

T1 sequence (P43116 whole entry): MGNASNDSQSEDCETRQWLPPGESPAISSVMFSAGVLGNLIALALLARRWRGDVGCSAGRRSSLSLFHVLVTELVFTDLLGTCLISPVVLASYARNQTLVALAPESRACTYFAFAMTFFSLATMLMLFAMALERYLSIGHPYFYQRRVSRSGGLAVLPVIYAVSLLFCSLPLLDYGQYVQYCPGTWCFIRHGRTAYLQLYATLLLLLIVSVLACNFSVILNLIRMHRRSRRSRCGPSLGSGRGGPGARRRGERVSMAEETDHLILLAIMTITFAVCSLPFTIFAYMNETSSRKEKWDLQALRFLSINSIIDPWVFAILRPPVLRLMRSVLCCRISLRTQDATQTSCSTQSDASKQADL

Regarding `CC(C)Oc1ccc2c(=O)c3cc(C(=O)O)ccc3oc2c1` [AH 6809, reference compound], in the experiment on Kumulus-Eizell Komplexe (concentration 100 - 200 µM), the “Unterdrückung der Kumulus Expansion” value is recorded as “ca. 30%”.

The term IC50 denotes the point on the concentration scale where inhibition reaches its midpoint. Turning to `Cc1[nH]c2c(F)ccc(C)c2c1CCNC(=O)c1ccc(-n2cccc2)cc1` [Beispiel 13, N-[2-(7-Fluor-2,4-dimethyl-1H-indol-3-yl)-ethyl]-4-pyrrol-1-yl-benzamid], in experiment [1], the IC50 was 960 nM.

Consider `Cc1[nH]c2c(F)ccc(C)c2c1CCNC(=O)c1cccc(-c2cc[nH]n2)c1` [Beispiel 15, N-[2-(7-Fluor-2,4-dimethyl-1H-indol-3-yl)-ethyl]-3-(1 H-pyrazol-3-yl)-benzamid], for which the “Inhibition im zellulären Agonismustest” value in experiment [2] is listed as “keine Inhibition”. Also, the concentration for half-maximal inhibition (IC50) in experiment [1] amounted to 1000 nM.

Regarding `Cc1[nH]c2c(F)ccc(C)c2c1CCNC(=O)c1cccc(-c2cccnc2)c1` [Beispiel 20, N-[2-(7-Fluor-2,4-dimethyl-1H-indol-3-yl)-ethyl]-3-pyridin-3-yl-benzamid], in experiment [1], the IC50 is 1900 nM.

For `Cc1[nH]c2c(F)ccc(C)c2c1CCNC(=O)c1ccc(-c2csnn2)cc1` [Beispiel 21, N-[2-(7-Fluor-2,4-dimethyl-1H-indol-3-yl)-ethyl]-4-[1,2,3]thiadiazol-4-yl-benzamid], the “Unterdrückung der Kumulus Expansion” value in the experiment on Kumulus-Eizell Komplexe (concentration 10µM) is given as 50%.
